PMC3335862, “Novel Small-Molecule Inhibitors of Hepatitis C Virus Entry Block Viral Spread and Promote Viral Clearance in Cell Culture” (PLoS ONE, 2012)
Like-named read-outs stand apart in the source and are kept apart here.

What was measured:
GT 1a/2a HCV [1] = test: HCV viral spread assay (cell-free and cell-cell transmission), flow cytometry; type: cell-based, hepatitis C virus; conditions: 72 h; PRO0371155 1 µM, PA-25 10 µg/mL; DMSO control 18.3, Background 0.31
Source text: Figure 3 PRO0371155 inhibits HCV infection by both cell-free and cell-cell modes of transmission. […] TEXT PRINTED IN THE PICTURE: PA-25: 7.54; 19.9; 66.8; 5.75 | DMSO: 4.4; 29.8; 47.6; 18.3 | PRO0371155: 8.1; 25.7; 65.7; 0.48 DOUBTS OF THE COPYIST ABOUT THIS PICTURE: All values are quadrant numbers of flow cytometry plots, given in the order upper left, upper right, lower left, lower right. The picture prints no measure or unit with them. / The print is very small, so 3, 5, 6, 8 and 9 cannot be told apart with certainty in any of the values below. / PA-25: 7.54, 19.9, 66.8 (partly hidden by data points; may be 65.8 or 68.8), 5.75 / DMSO: 4.4, 29.8 (or 29.6), 47.6 (partly hidden by data points; may be 47.8), 18.3 (or 18.8) / PRO0371155: 8.1, 25.7, 65.7 (partly hidden by data points), 0.48 (or 0.46) / The plot headed 'Background' (0.016, 5.44e-3, 99.7, 0.31) is left out because it is a staining control and not a substance.
8.8.7 software (TreeStar).
To determine whether the triazine series can block both routes of infection, we utilized a flow cytometry-based cell-to-cell transmission assay. Infected cells, stained with CellTracker green, were mixed with naïve cells in the presence or absence of entry inhibitors.

HCVpp GT 1b V719A = type: cell-based, hepatitis C virus; conditions: Genotype 1b background
HCVpp T388A = type: cell-based, hepatitis C virus
HCVpp genotype 4 = test: microbe, parasite or virus in culture; type: cell-based; conditions: Hepatitis C virus; n = 1 strain
VSVpp = test: microbe, parasite or virus in culture; type: cell-based, VSV
HCVpp GT 1a V719A = type: cell-based, hepatitis C virus
HCVpp GT 1a-V719I = type: cell-based, hepatitis C virus
HCVpp GT 1b = test: microbe, parasite or virus in culture; type: cell-based; conditions: Hepatitis C virus, GT1B
HCVpp GT 1b-V719L = type: cell-based, hepatitis C virus; conditions: Genotype 1b background
[2] = system: HCVpp pseudotyped with the GT1a envelope; test: microbe, parasite or virus in culture; type: cell-based; conditions: Hepatitis C virus, Hep3B cells, 72 h
GT 1a/2a HCV [3] = system: GT 1a/2a HCV
[4] = system: Hep3B, Huh-7, 293T, HeLa, Daudi, Ramos, Jurkat, primary hepatocyte; conditions: CellTiter Glo assay; data not shown except Hep3B
HCVpp GT 1b-V719I = type: cell-based, hepatitis C virus; conditions: Genotype 1b background
in vitro = conditions: human
HCVpp V719G = type: cell-based, hepatitis C virus; conditions: GT1a background
[5] = system: HCVpp typed with envelopes representing genotypes 2a, 2b, 3, and 6; test: microbe, parasite or virus in culture; type: cell-based; conditions: Hepatitis C virus
GT 1a/2a HCV [6] = test: Quantification of HCV RNA by qRT-PCR in long term treated cultures
HCVpp GT1a Pass. Ctrl. = test: microbe, parasite or virus in culture; type: cell-based; conditions: Hepatitis C virus, envelope from DMSO passage control culture
GT 1a/2a HCV [7] = test: HCV cell culture infection assay (Renilla luciferase), GT 1a/2a; conditions: Hepatitis C virus, GT1A, read-out: HCV Cell Culture EC50 GT 1a/2a
GT 1b/2a HCV = test: HCV cell culture infection assay (Renilla luciferase), GT 1b/2a; conditions: Hepatitis C virus, GT1B, read-out: HCV Cell Culture EC50 GT 1b/2a
HCVpp GT1a-V719L = type: cell-based, hepatitis C virus; conditions: GT1a background
[8] = culture initially 33% HCV+, 1 µM

CS(=O)(=O)N1CCC(Nc2nc(Nc3cccc(C(F)(F)F)c3)nc(OCC(F)(F)F)n2)CC1 [PRO0371155]
newly infected HCV+ cells (lower right quadrant) (GT 1a/2a HCV [1]): 0.48% | EC50 (HCVpp GT 1b V719A): 273 nM | fold change of EC50 vs parent GT 1b, V719A (HCVpp GT 1b V719A): 0.9 × | influence of T388A on susceptibility in the HCVpp assay (HCVpp T388A): did not have any influence | EC50 (HCVpp T388A; GT1a background): 2 nM | EC50 (HCVpp genotype 4): 190 nM | inhibition of entry of pseudoviral particles with envelope glycoproteins from irrelevant viruses including VSV (VSVpp): did not inhibit | EC50 (VSVpp; Vesicular stomatitis virus, read-out: VSVpp EC50): 39000 nM | reduction in potency vs parent GT1a envelope, V719A (HCVpp GT 1a V719A; GT1a background): 46 fold | EC50 (HCVpp GT 1a V719A; Genotype 1a background): 92 nM | fold change of EC50 vs parent GT 1a, V719A (HCVpp GT 1a V719A; Genotype 1a background): 46 × | reduction in potency vs parent GT1a envelope, V719I (HCVpp GT 1a-V719I; GT1a background): 34 fold | EC50 (HCVpp GT 1a-V719I; Genotype 1a background): 67 nM | fold change of EC50 vs parent GT 1a, V719I (HCVpp GT 1a-V719I; Genotype 1a background): 34 × | EC50 (HCVpp GT 1b; Hep3B, parent GT 1b envelope, read-out: EC50, HCVpp GT 1b): 317 nM | EC50 (HCVpp GT 1b; median across panel of GT 1b envelopes from HCV+ patient sera (n = strains), Hep3B cells, 72 h, read-out: HCVpp Median EC50 GT 1b): > 825 nM | EC50 (HCVpp GT 1b-V719L): > 1000 nM | fold change of EC50 vs parent GT 1b, V719L (HCVpp GT 1b-V719L): 3 × | EC50 ([2]; median across panel of GT 1a envelopes from HCV+ patient sera (n = strains), read-out: HCVpp Median EC50 GT 1a): 9 nM | EC50 ([2]; prototypical/parent GT 1a envelope, read-out: GT1a (EC50), HCVpp): 2 nM | change in percentage of HCV+ cells (NS3 staining) (GT 1a/2a HCV [3]; 20% HCV+ at baseline, PRO0371155 1 µM, IFN-alpha 10 IU/mL): more gradual decline | day of viral breakthrough in the presence of compound (GT 1a/2a HCV [3]; [8]): 21 days | time to loss of viral suppression and emergence of drug resistance (GT 1a/2a HCV [3]; [8]): ~3 weeks | fate of infected cells on long term treatment (GT 1a/2a HCV [3]; culture initially 90% HCV+, 1 µM): eradicated | viral rebound during washout period (GT 1a/2a HCV [3]; drug released at day 116, passaged additional 30 days, 90% HCV+ culture): not observed | cytotoxicity against a panel of cell lines and primary cells [4]: minimal cytotoxicity | EC50 (HCVpp GT 1b-V719I): > 1000 nM | fold change of EC50 vs parent GT 1b, V719I (HCVpp GT 1b-V719I): 3 × | CC50 (in vitro): 31000 nM | EC50 (HCVpp V719G): > 1000 nM | loss in susceptibility, V719G vs GT1a in the HCVpp assay (HCVpp V719G): > 500 fold | EC50 [5]: > 1000 nM | time HCV RNA maintained at background levels after removal of compound (GT 1a/2a HCV [6]): > 50 days | HCV RNA levels (GT 1a/2a HCV [6]; after 100 days in the presence of compound, 1 µM, limit of quantification): < 0.5 copies/cell | EC50 (HCVpp GT1a Pass. Ctrl.): 4 nM | EC50 (GT 1a/2a HCV [7]): 9 nM | EC50 (GT 1b/2a HCV): > 1000 nM | reduction in activity vs parent GT1a envelope, V719L (HCVpp GT1a-V719L): 500 fold
